Calls of active or inactive are those of the source. The rule behind the calls is not given here.
Key:
[1] = Cytotoxicity against human HuH7-J20 cells expressing secreted alkaline phosphatase reporter gene assessed as cell viability at 10 uM incubated for 1 hr by WST-1 assay; format: cell-based; conditions: huh-7, 1 h
[2] = test system: Hepatitis C virus; test: Antiviral activity against HCV pseudotyped particles infected in human HuH7 cells assessed as reduction of viral entry preincubated with cells for 1 hr followed by viral inoculation for 3 hrs by luciferase reporter gene assay; format: functional, organism-based; conditions: Hepacivirus hominis; Huh-7
[3] = test system: Hepatitis C virus; test: Antiviral activity against HCV JFH1 infected in human HuH7-J20 cells assessed as inhibition of viral life cycle by measuring secreted alkaline phosphatase level […] preincubated with cells for 1 hr followed by viral inoculation for 3 hrs measured at 72 hrs relative to control; format: functional; conditions: Hepacivirus hominis; genotype 2a JFH-1; Huh-7
[4] = test system: Hepatitis C virus; test: (§1) Antiviral activity against HCV JFH1 infected in human HuH7-J20 cells assessed as inhibition of viral life cycle by measuring secreted alkaline phosphatase level preincubated with cells for 1 hr followed by viral inoculation for 3 hrs measured at 72 hrs; format: functional, cell-based, Hepacivirus hominis; conditions: for EC50: genotype 2a JFH-1, Huh-7
[5] = Cytotoxicity against human HuH7-J20 cells expressing secreted alkaline phosphatase reporter gene assessed as cell viability preincubated for 1 hr followed by fresh drug administration every 24 hrs at 1/10th of initial concentration for 48 hrs by WST-1 assay; format: cell-based, Huh-7
[6] = test system: Hepatitis C virus; test: as §1, with “3 hrs and fresh drug administration every 24 hrs at 1/10th of initial concentration for 48 hrs measured at” for “3 hrs measured at”; format: functional, cell-based, Hepacivirus hominis; conditions: genotype 2a JFH-1, Huh-7
[7] = Selectivity index, ratio of CC50 for human HuH7-J20 cells expressing secreted alkaline phosphatase reporter gene preincubated for 1 hr followed by fresh drug administration every 24 hrs for 48 hrs to EC50 for HCV JFH1 infected in human HuH7-J20 cells preincubated with cells for 1 hr followed by viral inoculation for 3 hrs and fresh drug administration every 24 hrs at 1/10th of initial concentration for 48 hrs measured at 72 hrs; parameters: species or system Huh-7
[8] = Selectivity index, ratio of CC50 for human HuH7-J20 cells expressing secreted alkaline phosphatase reporter gene incubated for 1 hr to EC50 for HCV JFH1 infected in human HuH7-J20 cells preincubated with cells for 1 hr followed by viral inoculation for 3 hrs measured at 72 hrs; parameters: species or system Huh-7
[9] = Cytotoxicity against human HuH7 assessed as cell viability after 24 hrs by WST-1 assay; format: cell-based; conditions: huh-7, 24 h
[10] = test system: Hepatitis C virus; test: Antiviral activity against HCV JFH1 sub genomic replicon infected in human HuH7 cells assessed as inhibition of viral RNA replication at 10 uM measured after 24 hrs by luciferase reporter gene assay; format: functional, Hepacivirus hominis; conditions: genotype 2a JFH-1, Huh-7, 24 h
[11] = Cytotoxicity against human HuH7-J20 cells expressing secreted alkaline phosphatase reporter gene assessed as cell viability incubated for 1 hr by WST-1 assay; format: cell-based, Huh-7
[12] = test system: Hepatitis C virus; test: Ratio of EC50 for HCV JFH1 infected in human HuH7-J20 cells preincubated with cells for 1 hr followed by viral inoculation for 3 hrs measured at 72 hrs to EC50 for HCV JFH1 infected in human HuH7-J20 cells preincubated with cells for 1 hr followed by viral inoculation for 3 hrs and fresh drug administration every 24 hrs at 1/10th of initial concentration for 48 hrs measured at 72 hrs; format: functional, Hepacivirus hominis, genotype 2a JFH-1, Huh-7

Row | Structure (SMILES) | Activity [1] | Activity [2] | EC50 [4] [µM] | CC50 at 48 h [5] [µM] | EC50 [6] [µM] | Ratio CC50/EC50 [7] | Ratio CC50/EC50 [8] | CC50 at 1 h [11] [µM] | also measured
1 | Cl.N=C(NC(=O)N1CCN(c2ccc(Cl)cc2)CC1)Nc1ccccc1 | Non-toxic | inactive | – | – | – | – | – | – | –
2 | Cl.N=C(N)NC(=O)NCCCCN | Non-toxic | – | – | – | – | – | – | – | –
3 | Cl.N=C(N)NC(=O)N1CCOCC1 | Non-toxic | – | – | – | – | – | – | – | –
4 | N=C(N)NC(=N)Nc1ccc(F)cc1 | – | – | – | – | – | – | – | – | inhibition [3]: inactive
5 | Cl.N=C(NC(=O)N1CCN(c2ccc([N+](=O)[O-])cc2)CC1)Nc1ccc(Cl)cc1 | Non-toxic | inactive | – | – | – | – | – | – | –
6 | Cl.N=C(NCc1ccccc1)NC(=O)N1CCN(c2ccc(Cl)cc2)CC1 | – | inactive | 45.7 | 34.7 | 2.41 | 14.4 | 1.4 | 64 | Activity [9]: Non-toxic; inhibition at 10 µM [10]: ≤ 50%
7 | CC(C)(C)OC(=O)/N=C(\NCc1ccccc1)NC(=O)N1CCN(c2ccccc2)CC1 | Non-toxic | – | – | – | – | – | – | – | –
8 | Cl.N=C(N)NC(=O)NCc1ccccc1 | – | – | 52 | 325 | 35.3 | 9.19 | 6.23 | 324 | –
9 | Cl.N=C(NC(=O)N1CCN(c2ccc([N+](=O)[O-])cc2)CC1)Nc1ccccc1 | Non-toxic | inactive | – | – | – | – | – | – | –
10 | N=C(N)NC(=N)Nc1ccccc1 | – | – | – | – | – | – | – | – | inhibition [3]: inactive
11 | Cl.N=C(NCc1ccccc1)NC(=O)N1CCN(c2ccc(F)cc2)CC1 | Non-toxic | inactive | – | – | – | – | – | – | –
12 | Cl.N=C(NCc1ccccc1)NC(=O)N1CCOCC1 | Non-toxic | inactive | – | – | – | – | – | – | –
13 | Cl.N=C(NC(=O)N1CCN(c2ccc(C34CC5CC(CC(C5)C3)C4)cc2)CC1)Nc1ccc(Cl)cc1 | – | inactive | 9.8 | 77 | 13.9 | 5.54 | 7.45 | 73 | Activity [9]: Non-toxic
14 | N=C(N)NC(=N)N1CCN(c2ccccc2)CC1 | – | – | – | – | – | – | – | – | inhibition [3]: inactive
15 | Cc1ccc(N2CCN(C(=O)NC(=N)Nc3ccccc3)CC2)cc1.Cl | – | inactive | 9.35 | 21 | 4.7 | 4.4 | 2.82 | 26.4 | –
16 | N=C(N)NC(=N)NCc1ccccc1 | – | – | – | – | – | – | – | – | inhibition [3]: inactive
17 | NC(=O)c1ncn([C@@H]2O[C@H](CO)[C@@H](O)[C@H]2O)n1 [RIBAVIRIN] | – | – | 30.4 | 30.5 | 33.5 | 0.91 | >1 | > 30 | –
18 | Cl.N=C(NC(=O)N1CCN(c2ccccc2)CC1)Nc1ccc(Cl)cc1 | – | inactive | 11.2 | 39.7 | 1.3 | 30.4 | >2.68 | > 30 | Activity [9]: Non-toxic; inhibition at 10 µM [10]: ≤ 50%
19 | CC(C)(C)OC(=O)/N=C(\NCc1ccccc1)NC(=O)N1CCOCC1 | Non-toxic | – | – | – | – | – | – | – | –
20 | Cl.N=C(NCc1ccccc1)NC(=O)N1CCCC1 | Non-toxic | inactive | – | – | – | – | – | – | –
21 | CCOC(=O)CNC(=O)NC(=N)NC(=O)OC(C)(C)C | Non-toxic | – | – | – | – | – | – | – | –
22 | Cc1ccc(N2CCN(C(=O)NC(=N)Nc3ccc(Cl)cc3)CC2)cc1.Cl | Non-toxic | inactive | – | – | – | – | – | – | –
23 | Cl.N=C(NC(=O)N1CCN(c2ccccc2)CC1)Nc1ccccc1 | – | inactive | 59.5 | > 30 | 8.7 | >3.4 | 0.5 | > 30 | –
24 | C=CCNC(=O)NC(=N)NCc1ccccc1.Cl | Non-toxic | inactive | – | – | – | – | – | – | –
25 | CC(C)(C)OC(=O)NC(=N)NC(=O)NCc1ccccc1 | – | – | 21.9 | 49.3 | 6.17 | 7.99 | 4.25 | 92.9 | Ratio EC50 [12]: 3; Activity [9]: Non-toxic
26 | Cl.N=C(NCc1ccccc1)NC(=O)N1CCN(c2ccccc2)CC1 | Non-toxic | inactive | – | – | – | – | – | – | –
27 | N=C(N)NC(=N)N1CCOCC1 | – | – | – | – | – | – | – | – | inhibition ([4]; Hepacivirus hominis, genotype 2a JFH-1, Huh-7): inactive
28 | Cl.N=C(NC(=O)N1CCN(c2cc(Cl)cc(Cl)c2)CC1)Nc1ccc(Cl)cc1 | – | inactive | 10.4 | 34.2 | 1.69 | 20.2 | 6.06 | 63 | Activity [9]: Non-toxic
29 | CCOC(=O)CNC(=O)NC(=N)N.Cl | Non-toxic | – | – | – | – | – | – | – | –

Source: ChEMBL document CHEMBL3627618, “Rethinking the old antiviral drug moroxydine: Discovery of novel analogues as anti-hepatitis C virus (HCV) agents” (Bioorg Med Chem Lett, 2015)
